Experiments:
IL-17A : IL-17RA binding = biological target: T1, IL-17A : IL-17RA binding (Homo sapiens, UniProt Q16552, K93Q); assay: IL-17A(FLAG-tagged):IL-17RA(His-tagged) binding disruption Eu-HTRF assay, Protocol 1; settings: FLAG-IL-17A 2.5 nM at 2x final concentration; average if tested more than once
T1 construct: Name: IL-17A-Flag
How it was run: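 IC50 came from a one-site competition fit of the acceptor/donor (665/620 nm) HTRF ratio. His-tagged IL-17RA, Eu-anti-FLAG and D2-anti-His were added after a 1 h rt compound preincubation with FLAG-tagged IL-17A dimer in PBS/0.01% Triton X-100, followed by 2 h at rt before reading.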

[1] = system: IL-17A-induced G-CSF production in human normal keratinocyte (NHK); assay: NHK assay: IL-17A-induced G-CSF production in normal human keratinocytes; type: cell-based; settings: 24 h, IL-17A 5 ng/mL, average if tested more than once
How it was run: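 Compound titrations are first mixed with recombinant human IL-17A for 1 h at room temperature. The mixture goes onto adult normal human keratinocytes (final IL-17A 5 ng/mL, 5% FBS, 0.2% DMSO) for 24 h at 37 °C. Secreted G-CSF is then measured by HTRF and IC50 fitted.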

T1 sequence (Q16552 with tags, fused parts or gaps K93Q): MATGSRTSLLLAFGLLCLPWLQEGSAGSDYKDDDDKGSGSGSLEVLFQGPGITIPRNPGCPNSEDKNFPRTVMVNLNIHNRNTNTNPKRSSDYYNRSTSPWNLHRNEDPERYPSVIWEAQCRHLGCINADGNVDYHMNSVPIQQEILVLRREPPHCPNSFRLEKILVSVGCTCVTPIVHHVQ

## CC(C)n1nccc1C(=O)N[C@H](c1nc2ccc([C@H](NC(=O)CC3CC(F)(F)C3)C3CC3)cc2[nH]1)C1CC(F)(F)CCO1 (single isomer, unassigned) [Example 172, N—((R)-(6-((R)-Cyclopropyl(2-(3,3-difluorocyclobutyl)acetamido)methyl)-1H-benzo[d]imidazol-2-yl)((S*)-4,4-difluorotetrahydro-2H-pyran-2-yl)methyl)-1-isopropyl-1H-pyrazole-5-carboxamide]
IL-17A : IL-17RA binding
  IC50: > 0.1 µM
[1]; Homo sapiens, Keratinocyte
  IC50: < 0.05 µM

## Cc1nonc1C(=O)N[C@H](c1nc2ccc([C@H](NC(=O)CC3CC(F)(F)C3)C3CC3)cc2[nH]1)C1CCOC(C)(C)C1 (single isomer, unassigned) [Example 173, N—((S)-(6-((R)-Cyclopropyl(2-(3,3-difluorocyclobutyl)acetamido)methyl)-1H-benzo[d]imidazol-2-yl)((S*)-2,2-dimethyltetrahydro-2H-pyran-4-yl)methyl)-4-methyl-1,2,5-oxadiazole-3-carboxamide]
IL-17A : IL-17RA binding
  IC50: > 0.1 µM
[1]; Homo sapiens, Keratinocyte
  IC50: > 0.1 µM

## Cc1nonc1C(=O)N[C@H](c1nc2ccc([C@H](NC(=O)CC3CC(F)(F)C3)C3CC3)cc2[nH]1)C1CCOC(C)(C)C1 (single isomer, unassigned) [Example 174, N—((S)-(6-((R)-Cyclopropyl(2-(3,3-difluorocyclobutyl)acetamido)methyl)-1H-benzo[d]imidazol-2-yl)((R*)-2,2-dimethyltetrahydro-2H-pyran-4-yl)methyl)-4-methyl-1,2,5-oxadiazole-3-carboxamide]
IL-17A : IL-17RA binding
  IC50: > 0.1 µM
[1]
  IC50: 0.05 to 0.1 µM

## CC(CC(=O)N[C@@H](c1ccc2[nH]c([C@H](COC(C)(C)C(F)(F)F)NC(=O)c3nonc3C3CC3)nc2c1)C1CC1)C(F)F (single isomer, unassigned) [Example 175, 4-Cyclopropyl-N—((R)-1-(5-((R)-cyclopropyl((R*)-4,4-difluoro-3-methylbutanamido)methyl)-1H-benzo[d]imidazol-2-yl)-2-((1,1,1-trifluoro-2-methylpropan-2-yl)oxy)ethyl)-1,2,5-oxadiazole-3-carboxamide]
IL-17A : IL-17RA binding
  IC50: < 0.05 µM
[1]; Homo sapiens, Keratinocyte
  IC50: > 0.1 µM

## CC(CC(=O)N[C@@H](c1ccc2[nH]c([C@H](COC(C)(C)C(F)(F)F)NC(=O)c3nonc3C3CC3)nc2c1)C1CC1)C(F)F (single isomer, unassigned) [Example 176, 4-Cyclopropyl-N—((R)-1-(5-((R)-cyclopropyl((S*)-4,4-difluoro-3-methylbutanamido)methyl)-1H-benzo[d]imidazol-2-yl)-2-((1,1,1-trifluoro-2-methylpropan-2-yl)oxy)ethyl)-1,2,5-oxadiazole-3-carboxamide]
IL-17A : IL-17RA binding
  IC50: < 0.05 µM
[1]
  IC50: > 0.1 µM

## Cc1nonc1C(=O)N[C@@H](CC(C)(C)C(F)(F)F)c1nc2ccc([C@H](NC(=O)CC(C)C(F)(F)F)C3CC3)cc2[nH]1 (single isomer, unassigned) [Example 179, N—((S)-1-(6-((R)-Cyclopropyl((R*)-4,4,4-trifluoro-3-methylbutanamido)methyl)-1H-benzo[d]imidazol-2-yl)-4,4,4-trifluoro-3,3-dimethylbutyl)-4-methyl-1,2,5-oxadiazole-3-carboxamide]
IL-17A : IL-17RA binding
  IC50: < 0.05 µM
[1]; Homo sapiens, Keratinocyte
  IC50: > 0.1 µM

## Cc1nonc1C(=O)N[C@@H](CC(C)(C)C(F)(F)F)c1nc2ccc([C@H](NC(=O)CC(C)C(F)(F)F)C3CC3)cc2[nH]1 (single isomer, unassigned) [Example 180, N—((S)-1-(6-((R)-Cyclopropyl((S*)-4,4,4-trifluoro-3-methylbutanamido)methyl)-1H-benzo[d]imidazol-2-yl)-4,4,4-trifluoro-3,3-dimethylbutyl)-4-methyl-1,2,5-oxadiazole-3-carboxamide]
IL-17A : IL-17RA binding
  IC50: 0.05 to 0.1 µM
[1]
  IC50: > 0.1 µM

## CC(CC(=O)N[C@@H](c1ccc2nc([C@H](CC(C)(C)C(F)(F)F)NC(=O)c3nonc3C3CC3)[nH]c2c1)C1CC1)C(F)(F)F (single isomer, unassigned) [Example 181, 4-Cyclopropyl-N—((S)-1-(6-((R)-cyclopropyl((R*)-4,4,4-trifluoro-3-methylbutanamido)methyl)-1H-benzo[d]imidazol-2-yl)-4,4,4-trifluoro-3,3-dimethylbutyl)-1,2,5-oxadiazole-3-carboxamide]
IL-17A : IL-17RA binding
  IC50: < 0.05 µM
[1]; Homo sapiens, Keratinocyte
  IC50: < 0.05 µM

## CC(CC(=O)N[C@@H](c1ccc2nc([C@H](CC(C)(C)C(F)(F)F)NC(=O)c3nonc3C3CC3)[nH]c2c1)C1CC1)C(F)(F)F (single isomer, unassigned) [Example 182, 4-Cyclopropyl-N—((S)-1-(6-((R)-cyclopropyl((S*)-4,4,4-trifluoro-3-methylbutanamido)methyl)-1H-benzo[d]imidazol-2-yl)-4,4,4-trifluoro-3,3-dimethylbutyl)-1,2,5-oxadiazole-3-carboxamide]
IL-17A : IL-17RA binding
  IC50: < 0.05 µM
[1]
  IC50: < 0.05 µM

## Cc1nonc1C(=O)N[C@@H](CC(C)(C)C(F)(F)F)c1nc2ccc([C@H](NC(=O)CC3CC3(F)F)C3CC3)cc2[nH]1 (single isomer, unassigned) [Example 183, N—((S)-1-(6-((R)-Cyclopropyl(2-((R*)-2,2-difluorocyclopropyl)acetamido)methyl)-1H-benzo[d]imidazol-2-yl)-4,4,4-trifluoro-3,3-dimethylbutyl)-4-methyl-1,2,5-oxadiazole-3-carboxamide]
IL-17A : IL-17RA binding
  IC50: < 0.05 µM
[1]; Homo sapiens, Keratinocyte
  IC50: > 0.1 µM

## Cc1nonc1C(=O)N[C@@H](CC(C)(C)C(F)(F)F)c1nc2ccc([C@H](NC(=O)CC3CC3(F)F)C3CC3)cc2[nH]1 (single isomer, unassigned) [Example 184, N—((S)-1-(6-((R)-Cyclopropyl(2-((S*)-2,2-difluorocyclopropyl)acetamido)methyl)-1H-benzo[d]imidazol-2-yl)-4,4,4-trifluoro-3,3-dimethylbutyl)-4-methyl-1,2,5-oxadiazole-3-carboxamide]
IL-17A : IL-17RA binding
  IC50: 0.05 to 0.1 µM
[1]
  IC50: > 0.1 µM

## C[C@@H](NC(=O)CCC(F)(F)F)c1ccc2[nH]c(C(CC(C)(C)C(F)(F)F)NC(=O)c3cnn(CC4CC4)n3)nc2c1 (single isomer, unassigned) [Example 191, 2-(Cyclopropylmethyl)-N—((R*)-4,4,4-trifluoro-3,3-dimethyl-1-(5-((R)-1-(4,4,4-trifluorobutanamido)ethyl)-1H-benzo[d]imidazol-2-yl)butyl)-2H-1,2,3-triazole-4-carboxamide]
IL-17A : IL-17RA binding
  IC50: > 0.1 µM
[1]; Homo sapiens, Keratinocyte
  IC50: > 0.1 µM

## CC(C)n1ncc(F)c1C(=O)NC(CC(C)(C)C(F)(F)F)c1nc2cc([C@@H](C)NC(=O)CCC(F)(F)F)ccc2[nH]1 (single isomer, unassigned) [Example 194, 4-Fluoro-1-isopropyl-N—((S*)-4,4,4-trifluoro-3,3-dimethyl-1-(5-((R)-1-(4,4,4-trifluorobutanamido)ethyl)-1H-benzo[d]imidazol-2-yl)butyl)-1H-pyrazole-5-carboxamide]
IL-17A : IL-17RA binding
  IC50: > 0.1 µM
[1]; Homo sapiens, Keratinocyte
  IC50: > 0.1 µM

## C[C@@H](NC(=O)CCC(F)(F)F)c1ccc2[nH]c(C(CC(C)(C)C(F)(F)F)NC(=O)c3ncnn3CC3CC3)nc2c1 (single isomer, unassigned) [Example 195, 1-(Cyclopropylmethyl)-N—((S*)-4,4,4-trifluoro-3,3-dimethyl-(5-((R)-1-(4,4,4-trifluorobutanamido)ethyl)-1H-benzo[d]imidazol-2-yl)butyl)-1H-1,2,4-triazole-5-carboxamide]
IL-17A : IL-17RA binding
  IC50: > 0.1 µM
[1]; Homo sapiens, Keratinocyte
  IC50: > 0.1 µM

## CC(C)n1ncnc1C(=O)NC(CC(C)(C)C(F)(F)F)c1nc2cc([C@@H](C)NC(=O)CCC(F)(F)F)ccc2[nH]1 (single isomer, unassigned) [Example 196, 1-Isopropyl-N—((S*)-4,4,4-trifluoro-3,3-dimethyl-1-(5-((R)-1-(4,4,4-trifluorobutanamido)ethyl)-1H-benzo[d]imidazol-2-yl)butyl)-1H-1,2,4-triazole-5-carboxamide]
IL-17A : IL-17RA binding
  IC50: > 0.1 µM
[1]; Homo sapiens, Keratinocyte
  IC50: > 0.1 µM

## CCc1nonc1C(=O)NC(CC(C)(C)C(F)(F)F)c1nc2cc([C@@H](C)NC(=O)CCC(F)(F)F)ccc2[nH]1 (single isomer, unassigned) [Example 197, 4-Ethyl-N—((S*)-4,4,4-trifluoro-3,3-dimethyl-1-(5-((R)-1-(4,4,4-trifluorobutanamido)ethyl)-1H-benzo[d]imidazol-2-yl)butyl)-1,2,5-oxadiazole-3-carboxamide]
IL-17A : IL-17RA binding
  IC50: < 0.05 µM
[1]; Homo sapiens, Keratinocyte
  IC50: 0.05 to 0.1 µM

## Cc1nonc1C(=O)NC(CC(C)(C)C(F)(F)F)c1nc2cc([C@@H](C)NC(=O)CCC(F)(F)F)ccc2[nH]1 (single isomer, unassigned) [Example 198, 4-Methyl-N—((S*)-4,4,4-trifluoro-3,3-dimethyl-1-(5-((R)-1-(4,4,4-trifluorobutanamido)ethyl)-1H-benzo[d]imidazol-2-yl)butyl)-1,2,5-oxadiazole-3-carboxamide]
IL-17A : IL-17RA binding
  IC50: 0.05 to 0.1 µM
[1]; Homo sapiens, Keratinocyte
  IC50: > 0.1 µM

## C[C@@H](NC(=O)CCC(F)(F)F)c1ccc2[nH]c(C(CC(C)(C)C(F)(F)F)NC(=O)c3cnn(CC4CC4)n3)nc2c1 (single isomer, unassigned) [Example 218, 2-(Cyclopropylmethyl)-N—((S*)-4,4,4-trifluoro-3,3-dimethyl-1-(5-((R)-1-(4,4,4-trifluorobutanamido)ethyl)-1H-benzo[d]imidazol-2-yl)butyl)-2H-1,2,3-triazole-4-carboxamide]
IL-17A : IL-17RA binding
  IC50: > 0.1 µM
[1]
  IC50: > 0.1 µM

Source: US20240376085A1 (Janssen Pharmaceutica NV, priority 2021, published 2024)
